Measurements from patent publication US20260242419A1, “A CYCLIC PEPTIDE FOR TRAPPING INTERLEUKIN-1 BETA” (Merck Sharp & Dohme LLC, priority 2023, published 2026).
pIC50: −log10 of the molar value. Non-standard residues stand in square brackets, D forms with d. Residues, ends and D or L forms follow the SMILES beside them. dPro(4R-(4-pyridylmethyl)) = O=C(O)[C@H]1C[C@@H](Cc2ccncc2)CN1; Trp(βS-Me,4-F) = C[C@@H](c1c[nH]c2cccc(F)c12)[C@H](N)C(=O)O; Bip(4'-CONH2) = NC(=O)c1ccc(-c2ccc(C[C@H](N)C(=O)O)cc2)cc1; Ala(1-bicyclo(1.1.1)pentyl) = N[C@@H](CC12CC(C1)C2)C(=O)O; dPro(3S-(4-F-Bn)) = O=C(O)[C@@H]1NCC[C@@H]1Cc1ccc(F)cc1; Ala(pyrimidin-5-yl) = N[C@@H](Cc1cncnc1)C(=O)O; Phe(4-CONH2) = NC(=O)c1ccc(C[C@H](N)C(=O)O)cc1; Phe(4-COOH) = N[C@@H](Cc1ccc(C(=O)O)cc1)C(=O)O; Pro(cis-4-F) = O=C(O)[C@@H]1C[C@H](F)CN1; Ala(4-THP) = N[C@@H](CC1CCOCC1)C(=O)O; AEF = NCCOc1ccc(C[C@H](N)C(=O)O)cc1; d(αMeD) = C[C@@](N)(CC(=O)O)C(=O)O; 4Pal = N[C@@H](Cc1ccncc1)C(=O)O; aThr = C[C@H](O)[C@H](N)C(=O)O; d(αMeS) = C[C@@](N)(CO)C(=O)O; NMeDab = CN[C@@H](CCN)C(=O)O; Dab = NCC[C@H](N)C(=O)O; Aib = CC(C)(N)C(=O)O

molecular target: T1, IL-1β (Homo sapiens, UniProt P01584); assay: IL-6 assay in MRC5 cells: inhibition of IL-1β induced IL-6 secretion (AlphaLISA); assay type: cell-based; conditions: inhibition of IL-1β induced IL-6 secretion in MRC5 cells; read-out: MRC5 IC50
T1 construct: purchased BioLegend 579404
T1 sequence (P01584 117-269): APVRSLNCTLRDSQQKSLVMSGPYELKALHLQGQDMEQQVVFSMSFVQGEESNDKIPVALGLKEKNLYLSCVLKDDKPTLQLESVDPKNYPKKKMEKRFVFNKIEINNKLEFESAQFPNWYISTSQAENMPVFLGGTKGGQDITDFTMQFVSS
Summary of the method: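 Compound was pre-incubated 1 h at ambient temperature with recombinant human IL-1β at 2λ EC80 before adding human lung fibroblast MRC5 cells (3000/well) in EMEM with 0.025% BSA. After overnight culture at 37 °C, 5% CO2, secreted IL-6 in conditioned medium was measured by AlphaLISA; IC50 from 4-parameter logistic fits.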

pIC50	Structure (SMILES)
10.82	CC(=O)NCCOc1ccc(C[C@@H]2NC(=O)[C@H]3[C@@H](Cc4ccc(F)cc4)CCN3C(=O)CNC(=O)[C@H](CCN)NC(=O)[C@H](CCC(N)=O)NC(=O)[C@H](CC3CCOCC3)NC(=O)[C@@](C)(CC(=O)O)NC(=O)[C@H](Cc3c[nH]c4ccccc34)NC(=O)[C@H](CO)NC(=O)C(C)(C)NC(=O)[C@H]([C@@H](C)c3c[nH]c4cccc(F)c34)NC(=O)[C@@H]3C[C@H](F)CN3C(=O)CNC(=O)[C@H](Cc3ccc(C(=O)O)cc3)NC(=O)[C@H](CC34CC(C3)C4)NC2=O)cc1 [Example 370] (cyclo([AEF](Ac)[Ala(1-bicyclo(1.1.1)pentyl)][Phe(4-COOH)]G[Pro(cis-4-F)][Trp(βS-Me,4-F)][Aib]SW[d(αMeD)][Ala(4-THP)]Q[Dab]G[dPro(3S-(4-F-Bn))]))
10.85	CC(=O)NCCOc1ccc(C[C@@H]2NC(=O)[C@H]3[C@@H](Cc4ccc(F)cc4)CCN3C(=O)CNC(=O)[C@H](CCN)NC(=O)[C@H](CCC(N)=O)NC(=O)[C@H](CC3CCOCC3)NC(=O)[C@@](C)(CO)NC(=O)[C@H](Cc3c[nH]c4ccccc34)NC(=O)[C@H](CO)NC(=O)C(C)(C)NC(=O)[C@H]([C@@H](C)c3c[nH]c4cccc(F)c34)NC(=O)[C@@H]3C[C@H](F)CN3C(=O)CNC(=O)[C@H](Cc3ccc(C(=O)O)cc3)NC(=O)[C@H](CC34CC(C3)C4)NC2=O)cc1 [Example 371] (cyclo([AEF](Ac)[Ala(1-bicyclo(1.1.1)pentyl)][Phe(4-COOH)]G[Pro(cis-4-F)][Trp(βS-Me,4-F)][Aib]SW[d(αMeS)][Ala(4-THP)]Q[Dab]G[dPro(3S-(4-F-Bn))]))
11.05	CC(=O)NCCOc1ccc(C[C@@H]2NC(=O)[C@H]3[C@@H](Cc4ccc(F)cc4)CCN3C(=O)CNC(=O)[C@H](CCN)NC(=O)[C@H](CCC(N)=O)NC(=O)[C@H](CC3CCOCC3)NC(=O)[C@@](C)(CC(=O)O)NC(=O)[C@H](Cc3c[nH]c4ccccc34)NC(=O)[C@H](CO)NC(=O)C(C)(C)NC(=O)[C@H]([C@@H](C)c3c[nH]c4cccc(F)c34)NC(=O)[C@@H]3C[C@H](F)CN3C(=O)CNC(=O)[C@H](Cc3ccc(C(=O)O)cc3)NC(=O)[C@H](Cc3ccncc3)NC2=O)cc1 [Example 372] (cyclo([AEF](Ac)[4Pal][Phe(4-COOH)]G[Pro(cis-4-F)][Trp(βS-Me,4-F)][Aib]SW[d(αMeD)][Ala(4-THP)]Q[Dab]G[dPro(3S-(4-F-Bn))]))
10.92	CC(=O)NCCOc1ccc(C[C@@H]2NC(=O)[C@H]3[C@@H](Cc4ccc(F)cc4)CCN3C(=O)CNC(=O)[C@H](CCN)NC(=O)[C@H](CCC(N)=O)NC(=O)[C@H](CC3CCOCC3)NC(=O)[C@@](C)(CC(=O)O)NC(=O)[C@H](Cc3c[nH]c4ccccc34)NC(=O)[C@H](CO)NC(=O)C(C)(C)NC(=O)[C@H]([C@@H](C)c3c[nH]c4cccc(F)c34)NC(=O)[C@@H]3C[C@H](F)CN3C(=O)CNC(=O)[C@H](Cc3ccc(C(N)=O)cc3)NC(=O)[C@H](CC34CC(C3)C4)NC2=O)cc1 [Example 373] (cyclo([AEF](Ac)[Ala(1-bicyclo(1.1.1)pentyl)][Phe(4-CONH2)]G[Pro(cis-4-F)][Trp(βS-Me,4-F)][Aib]SW[d(αMeD)][Ala(4-THP)]Q[Dab]G[dPro(3S-(4-F-Bn))]))
10.77	CC(=O)NCCOc1ccc(C[C@@H]2NC(=O)[C@H]3C[C@@H](Cc4ccncc4)CN3C(=O)CNC(=O)[C@H](CCN)NC(=O)[C@H](CCC(N)=O)NC(=O)[C@H](CC3CCOCC3)NC(=O)[C@@](C)(CC(=O)O)NC(=O)[C@H](Cc3c[nH]c4ccccc34)NC(=O)[C@H](CO)NC(=O)C(C)(C)NC(=O)[C@H]([C@@H](C)c3c[nH]c4cccc(F)c34)NC(=O)[C@@H]3C[C@H](F)CN3C(=O)CNC(=O)[C@H](Cc3ccc(C(=O)O)cc3)NC(=O)[C@H](CC34CC(C3)C4)NC2=O)cc1 [Example 374] (cyclo([AEF](Ac)[Ala(1-bicyclo(1.1.1)pentyl)][Phe(4-COOH)]G[Pro(cis-4-F)][Trp(βS-Me,4-F)][Aib]SW[d(αMeD)][Ala(4-THP)]Q[Dab]G[dPro(4R-(4-pyridylmethyl))]))
10.32	CC(=O)NCCOc1ccc(C[C@@H]2NC(=O)[C@H]3C[C@@H](Cc4ccncc4)CN3C(=O)CNC(=O)[C@H](CCN)NC(=O)[C@H](CCC(N)=O)NC(=O)[C@H](CC3CCOCC3)NC(=O)[C@@](C)(CC(=O)O)NC(=O)[C@H](Cc3c[nH]c4ccccc34)NC(=O)[C@H](CO)NC(=O)C(C)(C)NC(=O)[C@H]([C@@H](C)c3c[nH]c4cccc(F)c34)NC(=O)[C@@H]3C[C@H](F)CN3C(=O)CNC(=O)[C@H](Cc3ccc(C(N)=O)cc3)NC(=O)[C@H](CC34CC(C3)C4)NC2=O)cc1 [Example 376] (cyclo([AEF](Ac)[Ala(1-bicyclo(1.1.1)pentyl)][Phe(4-CONH2)]G[Pro(cis-4-F)][Trp(βS-Me,4-F)][Aib]SW[d(αMeD)][Ala(4-THP)]Q[Dab]G[dPro(4R-(4-pyridylmethyl))]))

Second part, the compound before the results:

Structure (SMILES)	pIC50
CC(=O)NCCOc1ccc(C[C@@H]2NC(=O)[C@H]3[C@@H](Cc4ccc(F)cc4)CCN3C(=O)CNC(=O)[C@H](CCN)NC(=O)[C@H](CCC(N)=O)NC(=O)[C@H](Cc3cncnc3)NC(=O)[C@@](C)(CC(=O)O)NC(=O)[C@H](Cc3c[nH]c4ccccc34)NC(=O)[C@H](CO)NC(=O)C(C)(C)NC(=O)[C@H]([C@@H](C)c3c[nH]c4cccc(F)c34)NC(=O)[C@@H]3C[C@H](F)CN3C(=O)CNC(=O)[C@H](Cc3ccc(C(=O)O)cc3)NC(=O)[C@H](Cc3ccncc3)NC2=O)cc1 [Example 369] (cyclo([AEF](Ac)[4Pal][Phe(4-COOH)]G[Pro(cis-4-F)][Trp(βS-Me,4-F)][Aib]SW[d(αMeD)][Ala(pyrimidin-5-yl)]Q[Dab]G[dPro(3S-(4-F-Bn))]))	10.68
CC(=O)NCCOc1ccc(C[C@@H]2NC(=O)[C@H]3C[C@@H](Cc4ccncc4)CN3C(=O)CNC(=O)[C@H](CCN)NC(=O)[C@H](CCC(N)=O)NC(=O)[C@H](CC3CCOCC3)NC(=O)[C@@](C)(CO)NC(=O)[C@H](Cc3c[nH]c4ccccc34)NC(=O)[C@H](CO)NC(=O)C(C)(C)NC(=O)[C@H]([C@@H](C)c3c[nH]c4cccc(F)c34)NC(=O)[C@@H]3C[C@H](F)CN3C(=O)CNC(=O)[C@H](Cc3ccc(C(=O)O)cc3)NC(=O)[C@H](CC34CC(C3)C4)NC2=O)cc1 [Example 375] (cyclo([AEF](Ac)[Ala(1-bicyclo(1.1.1)pentyl)][Phe(4-COOH)]G[Pro(cis-4-F)][Trp(βS-Me,4-F)][Aib]SW[d(αMeS)][Ala(4-THP)]Q[Dab]G[dPro(4R-(4-pyridylmethyl))]))	10.60
CC(=O)NCCOc1ccc(C[C@@H]2NC(=O)[C@H]3C[C@@H](Cc4ccncc4)CN3C(=O)CNC(=O)[C@H](CCN)NC(=O)[C@H](CCC(N)=O)NC(=O)[C@H](CC3CCOCC3)NC(=O)[C@@](C)(CC(=O)O)NC(=O)[C@H](Cc3c[nH]c4ccccc34)NC(=O)[C@H](CO)NC(=O)C(C)(C)NC(=O)[C@H]([C@@H](C)c3c[nH]c4cccc(F)c34)NC(=O)[C@@H]3C[C@H](F)CN3C(=O)CNC(=O)[C@H](Cc3ccc(C(N)=O)cc3)NC(=O)[C@H](Cc3ccncc3)NC2=O)cc1 [Example 377] (cyclo([AEF](Ac)[4Pal][Phe(4-CONH2)]G[Pro(cis-4-F)][Trp(βS-Me,4-F)][Aib]SW[d(αMeD)][Ala(4-THP)]Q[Dab]G[dPro(4R-(4-pyridylmethyl))]))	10.40
CC(=O)NCCOc1ccc(C[C@@H]2NC(=O)[C@H]3C[C@@H](Cc4ccncc4)CN3C(=O)CNC(=O)[C@H](CCN)NC(=O)[C@H](CCC(N)=O)NC(=O)[C@H](CC3CCOCC3)NC(=O)[C@@](C)(CO)NC(=O)[C@H](Cc3c[nH]c4ccccc34)NC(=O)[C@H](CO)NC(=O)C(C)(C)NC(=O)[C@H]([C@@H](C)c3c[nH]c4cccc(F)c34)NC(=O)[C@@H]3C[C@H](F)CN3C(=O)CNC(=O)[C@H](Cc3ccc(C(N)=O)cc3)NC(=O)[C@H](Cc3ccncc3)NC2=O)cc1 [Example 378] (cyclo([AEF](Ac)[4Pal][Phe(4-CONH2)]G[Pro(cis-4-F)][Trp(βS-Me,4-F)][Aib]SW[d(αMeS)][Ala(4-THP)]Q[Dab]G[dPro(4R-(4-pyridylmethyl))]))	10.37
C[C@@H](c1c[nH]c2cccc(F)c12)[C@@H]1NC(=O)[C@@H]2C[C@H](F)CN2C(=O)CNC(=O)[C@H](Cc2ccc(C(=O)O)cc2)NC(=O)[C@H](Cc2ccncc2)NC(=O)[C@H](Cc2ccc(-c3ccc(C(N)=O)cc3)cc2)NC(=O)[C@H]2[C@@H](Cc3ccc(F)cc3)CCN2C(=O)CNC(=O)[C@H](CCN)NC(=O)[C@H](CCC(N)=O)NC(=O)[C@H](Cc2cncnc2)NC(=O)[C@@](C)(CC(=O)O)NC(=O)[C@H](Cc2c[nH]c3ccccc23)NC(=O)[C@H](CO)NC(=O)C(C)(C)NC1=O [Example 379] (cyclo([Bip(4'-CONH2)][4Pal][Phe(4-COOH)]G[Pro(cis-4-F)][Trp(βS-Me,4-F)][Aib]SW[d(αMeD)][Ala(pyrimidin-5-yl)]Q[Dab]G[dPro(3S-(4-F-Bn))]))	10.80
C[C@@H](c1c[nH]c2cccc(F)c12)[C@@H]1NC(=O)[C@@H]2C[C@H](F)CN2C(=O)CNC(=O)[C@H](Cc2ccc(C(N)=O)cc2)NC(=O)[C@H](Cc2ccncc2)NC(=O)[C@H](Cc2ccc(-c3ccc(C(N)=O)cc3)cc2)NC(=O)[C@H]2[C@@H](Cc3ccc(F)cc3)CCN2C(=O)CNC(=O)[C@H](CCN)NC(=O)[C@H](CCC(N)=O)NC(=O)[C@H](Cc2cncnc2)NC(=O)[C@@](C)(CC(=O)O)NC(=O)[C@H](Cc2c[nH]c3ccccc23)NC(=O)[C@H](CO)NC(=O)C(C)(C)NC1=O [Example 380] (cyclo([Bip(4'-CONH2)][4Pal][Phe(4-CONH2)]G[Pro(cis-4-F)][Trp(βS-Me,4-F)][Aib]SW[d(αMeD)][Ala(pyrimidin-5-yl)]Q[Dab]G[dPro(3S-(4-F-Bn))]))	10.74
CCO[C@@H](C)[C@@H]1NC(=O)C(C)(C)NC(=O)[C@H](Cc2c[nH]c3ccccc23)NC(=O)[C@H](CO)NC(=O)C(C)(C)NC(=O)[C@H]([C@@H](C)c2c[nH]c3cccc(F)c23)NC(=O)[C@@H]2C[C@H](F)CN2C(=O)CNC(=O)[C@H](Cc2ccc(C(N)=O)cc2)NC(=O)[C@H](Cc2ccncc2)NC(=O)[C@H](Cc2ccc(OCCNC(C)=O)cc2)NC(=O)[C@H]2C[C@@H](Cc3ccncc3)CN2C(=O)CNC(=O)[C@H](CCN)N(C)C(=O)[C@H](CCC(N)=O)NC1=O [Example 381] (cyclo([4Pal][Phe(4-CONH2)]G[Pro(cis-4-F)][Trp(βS-Me,4-F)][Aib]SW[Aib][aThr](Et)Q[NMeDab]G[dPro(4R-(4-pyridylmethyl))][AEF](Ac)))	10.39
